From ChEMBL document CHEMBL1909046, “DrugMatrix in vitro pharmacology data”
pIC50, pKi: −log10 of the molar value.

What was measured:
Cytochrome P450 1A2 = target: T1, Cytochrome P450 1A2 (Homo sapiens, UniProt P05177); conditions: bti-tn-5b1-4; also: in other assays of this panel Not Active means under 50% inhibition at 10 µM
T1 sequence (P05177 whole entry): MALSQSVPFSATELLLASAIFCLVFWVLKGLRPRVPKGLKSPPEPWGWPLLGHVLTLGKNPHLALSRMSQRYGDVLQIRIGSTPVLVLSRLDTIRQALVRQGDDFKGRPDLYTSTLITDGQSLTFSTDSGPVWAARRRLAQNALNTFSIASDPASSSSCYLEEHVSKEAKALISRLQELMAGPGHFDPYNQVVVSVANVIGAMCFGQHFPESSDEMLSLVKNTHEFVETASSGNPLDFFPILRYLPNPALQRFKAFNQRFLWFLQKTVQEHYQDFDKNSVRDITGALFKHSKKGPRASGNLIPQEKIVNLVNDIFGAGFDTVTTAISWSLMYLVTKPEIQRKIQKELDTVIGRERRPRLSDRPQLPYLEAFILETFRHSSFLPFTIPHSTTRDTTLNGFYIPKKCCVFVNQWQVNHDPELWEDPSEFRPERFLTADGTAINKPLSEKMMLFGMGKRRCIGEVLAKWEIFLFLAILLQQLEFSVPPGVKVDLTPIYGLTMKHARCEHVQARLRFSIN

[1] = target: 5-hydroxytryptamine receptor 4 (Cavia porcellus, UniProt O70528); format: cell membranes, Dunkin-Hartley, Striatum, Membrane; also: in other assays of this panel Not Active means under 50% inhibition at 10 µM
[2] = DRUGMATRIX: Nicotinic Acetylcholine radioligand binding (ligand: [125I] Epibatidine); format: cell membranes, Membrane; conditions: imr-32; Not Active = under 50% inhibition at 10 µM
[3] = target: T2, Muscarinic acetylcholine receptor M5 (Homo sapiens, UniProt P08912); format: cell membranes, CHO-K1, Membrane; also: in other assays of this panel Not Active means under 50% inhibition at 10 µM
T2 sequence (P08912 whole entry): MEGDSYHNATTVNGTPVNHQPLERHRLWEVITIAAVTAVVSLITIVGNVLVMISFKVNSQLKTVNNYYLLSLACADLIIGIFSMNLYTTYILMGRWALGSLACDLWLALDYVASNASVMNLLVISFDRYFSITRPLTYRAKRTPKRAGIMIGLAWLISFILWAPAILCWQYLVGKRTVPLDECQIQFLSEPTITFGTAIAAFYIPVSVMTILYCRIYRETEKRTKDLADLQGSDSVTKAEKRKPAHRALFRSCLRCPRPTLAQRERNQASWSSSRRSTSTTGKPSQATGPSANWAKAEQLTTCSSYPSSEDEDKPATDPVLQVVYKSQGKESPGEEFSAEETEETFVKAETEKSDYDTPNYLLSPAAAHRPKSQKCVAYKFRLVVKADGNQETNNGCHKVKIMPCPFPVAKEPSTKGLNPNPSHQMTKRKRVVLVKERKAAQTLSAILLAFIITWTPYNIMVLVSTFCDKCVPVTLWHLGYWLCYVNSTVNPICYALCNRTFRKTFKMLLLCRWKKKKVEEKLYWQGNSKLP

[4] = DRUGMATRIX: Glutamate, AMPA radioligand binding (ligand: [3H] AMPA); format: cell membranes, Rattus norvegicus, Wistar, Cerebral cortex, Membrane; conditions: Not Active = under 50% inhibition at 10 µM
[5] = DRUGMATRIX: Purinergic P2X radioligand binding (ligand: [3H] alpha, beta-Methylene-ATP); format: cell membranes, Oryctolagus cuniculus, New Zealand albino, Urinary bladder, Membrane; conditions: Not Active = under 50% inhibition at 10 µM
[6] = DRUGMATRIX: Interleukin IL-1 radioligand binding (ligand: [125I] interleukin 1beta); format: cell membranes, Membrane; conditions: nih3t3; Not Active = under 50% inhibition at 10 µM
[7] = DRUGMATRIX: GABAA, Chloride Channel, TBOB radioligand binding (ligand: [3H] TBOB); format: cell membranes, Rattus norvegicus, Wistar, Cerebral cortex, Membrane; conditions: Not Active = under 50% inhibition at 10 µM

5-hydroxytryptamine receptor 4, sequence (O70528 whole entry): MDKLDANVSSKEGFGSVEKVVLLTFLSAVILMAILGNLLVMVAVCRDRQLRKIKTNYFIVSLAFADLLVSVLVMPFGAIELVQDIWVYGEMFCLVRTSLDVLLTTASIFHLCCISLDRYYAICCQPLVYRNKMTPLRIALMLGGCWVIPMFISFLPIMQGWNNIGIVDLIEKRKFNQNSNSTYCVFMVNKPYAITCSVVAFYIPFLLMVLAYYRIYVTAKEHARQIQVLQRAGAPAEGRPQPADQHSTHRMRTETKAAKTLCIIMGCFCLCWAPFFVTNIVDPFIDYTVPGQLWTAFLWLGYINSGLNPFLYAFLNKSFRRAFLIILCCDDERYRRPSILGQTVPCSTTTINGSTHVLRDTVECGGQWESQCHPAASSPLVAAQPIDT

Structure (SMILES)	IC50 (Cytochrome P450 1A2)	Ki (Cytochrome P450 1A2)	IC50 [1]	IC50 [2]	Ki [2]	IC50 ([3]; cho-k1)	IC50 [4]	Ki [4]	IC50 [5]	Ki [5]	IC50 [6]	Ki [6]	IC50 [7]	Ki [7]	pIC50 ([3]; read-out: IC50)	pKi ([3]; read-out: Ki)	Ki ([3]; cho-k1)
C[C@]12C=CC(=O)C=C1CC[C@H]1[C@@H]3C[C@@H](O)[C@](O)(C(=O)CO)[C@@]3(C)C[C@H](O)[C@@]12F [TRIAMCINOLONE]	Not Active	Not Active	Not Active	Not Active	Not Active	Not Active	Not Active	Not Active	Not Active	Not Active	Not Active	Not Active	Not Active	Not Active	–	–	–
CC(=O)OCC(=O)[C@@]1(O)CC[C@H]2[C@@H]3CCC4=CC(=O)CC[C@]4(C)[C@@]3(F)[C@@H](O)C[C@@]21C [FLUDROCORTISONE ACETATE]	Not Active	Not Active	Not Active	Not Active	Not Active	Not Active	Not Active	Not Active	Not Active	Not Active	Not Active	Not Active	Not Active	Not Active	–	–	–
CN(C)C(=O)Oc1cccc([N+](C)(C)C)c1.[Br-] [NEOSTIGMINE BROMIDE]	Not Active	Not Active	Not Active	Not Active	Not Active	Not Active	Not Active	Not Active	Not Active	Not Active	Not Active	Not Active	Not Active	Not Active	–	–	–
C[C@]12CC[C@@H]3c4ccc(O)cc4CC[C@H]3[C@@H]1C[C@@H](O)[C@@H]2O [ESTRIOL]	Not Active	Not Active	Not Active	Not Active	Not Active	Not Active	Not Active	Not Active	Not Active	Not Active	Not Active	Not Active	Not Active	Not Active	–	–	–
CCN(CC)CCNC(=O)c1ccc(N)cc1 [PROCAINAMIDE]	Not Active	Not Active	Not Active	Not Active	Not Active	Not Active	Not Active	Not Active	Not Active	Not Active	Not Active	Not Active	Not Active	Not Active	–	–	–
O=C(O)P(=O)(O)O [FOSCARNET]	Not Active	Not Active	Not Active	Not Active	Not Active	Not Active	Not Active	Not Active	Not Active	Not Active	Not Active	Not Active	Not Active	Not Active	–	–	–
C[C@H]1[C@H](NC(=O)/C(=N\OC(C)(C)C(=O)O)c2csc(N)n2)C(=O)N1S(=O)(=O)O [AZTREONAM]	Not Active	Not Active	Not Active	Not Active	Not Active	Not Active	Not Active	Not Active	Not Active	Not Active	Not Active	Not Active	Not Active	Not Active	–	–	–
CN1C[C@@H]2C[C@H]1CN2c1cc2c(cc1F)c(=O)c(C(=O)O)cn2C1CC1 [DANOFLOXACIN]	Not Active	Not Active	Not Active	Not Active	Not Active	Not Active	Not Active	Not Active	Not Active	Not Active	Not Active	Not Active	Not Active	Not Active	–	–	–
CN1CCCC(CN2c3ccccc3Sc3ccccc32)C1 (centres undefined) [MEPAZINE]	Not Active	Not Active	Not Active	Not Active	Not Active	–	Not Active	Not Active	Not Active	Not Active	Not Active	Not Active	Not Active	Not Active	7.40	7.55	–
NCCCNCCSP(=O)(O)O [AMIFOSTINE]	Not Active	Not Active	Not Active	Not Active	Not Active	Not Active	Not Active	Not Active	Not Active	Not Active	Not Active	Not Active	Not Active	Not Active	–	–	–
CC[C@]1(O)C[C@@H]2CN(CCc3c([nH]c4ccccc34)[C@@](C(=O)OC)(c3cc4c(cc3OC)N(C)[C@H]3[C@@](O)(C(N)=O)[C@H](O)[C@]5(CC)C=CCN6CC[C@]43[C@@H]65)C2)C1 [VINDESINE]	Not Active	Not Active	Not Active	Not Active	Not Active	Not Active	Not Active	Not Active	Not Active	Not Active	Not Active	Not Active	Not Active	Not Active	–	–	–
CCn1cc(C(=O)O)c(=O)c2cc(F)c(N3CCNC(C)C3)c(F)c21 (centres undefined) [LOMEFLOXACIN]	Not Active	Not Active	Not Active	Not Active	Not Active	Not Active	Not Active	Not Active	Not Active	Not Active	Not Active	Not Active	Not Active	Not Active	–	–	–
CN1CCN(c2c(F)cc3c(=O)c(C(=O)O)cn(CCF)c3c2F)CC1 [FLEROXACIN]	Not Active	Not Active	Not Active	Not Active	Not Active	Not Active	Not Active	Not Active	Not Active	Not Active	Not Active	Not Active	Not Active	Not Active	–	–	–
C[C@H]1COc2c(N3CCN(C)CC3)c(F)cc3c(=O)c(C(=O)O)cn1c23.C[C@H]1COc2c(N3CCN(C)CC3)c(F)cc3c(=O)c(C(=O)O)cn1c23.O [LEVOFLOXACIN]	Not Active	Not Active	Not Active	Not Active	Not Active	Not Active	Not Active	Not Active	Not Active	Not Active	Not Active	Not Active	Not Active	Not Active	–	–	–
NC(=O)c1cccc(N)c1 [3-AMINOBENZAMIDE]	Not Active	Not Active	Not Active	Not Active	Not Active	Not Active	Not Active	Not Active	Not Active	Not Active	Not Active	Not Active	Not Active	Not Active	–	–	–
CC(=O)OC[C@H]1O[C@@H](n2ncc(=O)[nH]c2=O)[C@H](OC(C)=O)[C@@H]1OC(C)=O [AZARIBINE]	Not Active	Not Active	Not Active	Not Active	Not Active	–	Not Active	Not Active	Not Active	Not Active	Not Active	Not Active	Not Active	Not Active	–	–	Not Active
NC(=O)N1c2ccccc2CC(=O)c2ccccc21 [OXCARBAZEPINE]	Not Active	Not Active	Not Active	Not Active	Not Active	Not Active	Not Active	Not Active	Not Active	Not Active	Not Active	Not Active	Not Active	Not Active	–	–	–
